Measurements as given in PubChem BioAssay AID1508612.

Experiment: passive permeability, PAMPA, ADME assay (AID 1508612)
Details: pH 7.4, 30.0 min, 50.0 µM

| Structure (SMILES) | Papp [×10⁻⁶ cm/s] |
| --- | --- |
| Cc1ccccc1NC(=O)Nc1cccs1 | 106 |
| O=c1cc(-c2nc(Nc3ccc(F)c(F)c3)c3ccccc3n2)cc[nH]1 | 396 |
| COc1ccc(C(=O)CCN(C)C)cc1F | 410 |
| COc1ccccc1-n1cnc2cc(C(=O)N3CCCCC3)ccc21 | 385 |
| COc1ccc(-n2nc(C3CCN(C(=O)Cc4ccc(F)cc4)CC3)[nH]c2=O)cc1 | 540 |
| COC(=O)[C@@]12OC[C@]34[C@H]([C@@H](O)[C@@H]1O)[C@@]1(C)CC(=O)C(O)=C(C)[C@@H]1C[C@H]3OC(=O)[C@H](OC(=O)/C=C(\C)C(C)C)[C@@H]24 | 120 |
| O=C(c1cnc(N2CCCCC2)c2ccccc12)N1CCN(c2ccc(Cl)cc2)CC1 | > 1000 |
| NCC(=O)Nc1cccc(-c2nn3c(=O)cc(N4CCNCC4)nc3s2)c1 | < 1 |
| COc1ccc(C2=Nn3c([n+](C)c4ccccc43)SC2)cc1 | < 1 |
| COc1cc(OC)c2c(=O)[nH]c(-c3cc(C)c(OCCO)c(C)c3)nc2c1 | 540 |
| COc1ccc(NC(=O)c2c(C)cccc2C)cc1[S+](=O)([O-])N(C)C | 196 |
| CN(C)c1cccc(-c2nccc(N3CCC(C(N)=O)CC3)n2)c1 | 287 |
| CN1C(=O)c2ccccc2[S@](=O)c2ccc(C(=O)NCc3ccc(Cl)cc3)cc21 | > 1000 |
| O=c1c(-c2cccs2)ccc2n1C[C@H]1C[C@@H]2CN(C2CCOCC2)C1 | 460 |
| CCOC(=O)c1ccc(-n2cnc3cc(C(=O)N4CCCCC4)ccc32)cc1 | > 1000 |
| CC(C)COc1ccc(-c2csc(N3CCC(C(N)=O)CC3)n2)cc1 | 48.4 |
| COc1ccc(-c2ccc3nc(-c4cc(C)cc(C)c4)oc3c2)c(OC)c1OC | < 1 |
| CC1=C(C(=O)Nc2nnc(-c3ccccc3)s2)C(c2nn(C)cc2Cl)N=C(Nc2nc3ccccc3o2)N1 (stereo not drawn) | 23.1 |
| O=C(O)CNC(=O)c1c(O)c2ccccc2n(Cc2ccccc2)c1=O | 14.6 |
| O=C(Nc1cn[nH]c1-c1nc2ccc(CN3CCOCC3)cc2[nH]1)NC1CC1 | 5.07 |
| Cn1c(C(=O)NCCc2ccccn2)nc2nc(-c3ccccc3)c(Cl)cc21 | > 1000 |
| CN1CCN(C(=O)c2ccc3cc(CCNc4ncnc5ccc(C#N)cc45)ccc3c2)CC1 | 545 |
| NC(=O)C1CCN(c2nc(-c3ccc4c(c3)OCCCO4)cs2)CC1 | 629 |
| O=c1ncn2nc(Sc3ccc(F)cc3F)ccc2c1-c1c(Cl)cccc1Cl | 866 |
| O=C(Cc1cccc(OC(F)(F)F)c1)Nc1ccc(CCCCc2nnc(NC(=O)Cc3ccccn3)s2)nn1 | 161 |
| Fc1ccc(CN2CCOC[C@H]2c2ncc(-c3ccc(Cl)s3)[nH]2)cc1 | > 1000 |
| O=C(c1ccco1)N1CCN(c2nc(-c3ccc(Br)cc3)cs2)CC1 | 4.09 |

| Structure (SMILES) | Papp [×10⁻⁶ cm/s] |
| --- | --- |
| CC(=O)N1CCC2(CCCN(c3ccc(-c4ccccc4)cc3)C2)CC1 | > 1000 |
| COc1cccc(CNC(=O)CCCn2nc(C)c3c(C)n(-c4ccc(C)cc4)nc3c2=O)c1OC | 619 |
| COc1cc(Nc2nc(-c3ccncc3)nc3ccccc23)ccc1NS(C)(=O)=O | > 1000 |
| COc1cccc(NC(=S)N2CCN(c3cccc(C(F)(F)F)c3)CC2)n1 | 735 |
| O=S(=O)(Nc1nccs1)c1ccc(NCc2ccccc2O)cc1 | 1.15 |
| Cc1nnc(-c2ccccc2C(C)C)nc1NCc1ccc(-c2cccnc2)cc1 | > 1000 |
| Cc1cc2c(C(N)=O)cccc2n1-c1nc2c(c(NCc3ccccc3)n1)COCC2 | 597 |
| Cc1ccccc1S(=O)(=O)Nc1cnccc1C(=O)Nc1nc(-c2ccccc2)cs1 | > 1000 |
| COc1cc(-c2cn(C)c(=O)c3cnccc23)c(OC)cc1CN(C)C | 28.9 |
| NC(=O)C1CCN(c2cc(-c3ccc4c(c3)OCCCO4)ncn2)CC1 | 37 |
| Cc1c(O)ccc2c1OC(C)(C)CC2 | 540 |
| O=[S+]([O-])(Nc1nccs1)c1ccc(NCc2cc(F)cc(Cl)c2O)cc1 | 18.1 |
| COC(=O)CNC(=O)c1nc(-c2ccc(Cl)nc2)c2ccccn12 | > 1000 |
| O=C(Nc1ccc2c(N3CCCCC3)ncnc2c1)c1cc(F)cc(F)c1 | > 1000 |
| CC1Cc2cc(S(=O)(=O)NCc3ccc(N(C)C)cc3)ccc2N1C(=O)C1CCC1 (stereo not drawn) | > 1000 |
| N#Cc1cnccc1-c1nc(Nc2ccc(F)c(F)c2)c2ccccc2n1 | 269 |
| COc1cccc(O)c1CNc1ccc(S(=O)(=O)Nc2nccs2)cc1 | 5.16 |
| COc1ccc(-n2nc(C3CCCN(C(=O)c4cccc(OC)c4)C3)[nH]c2=O)cc1 (stereo not drawn) | 436 |
| Cc1noc(C)c1-c1cc(-c2ccc3c(c2)C(=O)NC3)cn2cncc12 | 143 |
| CCn1c(-c2nonc2N)nc2cnc(Oc3cccc(NC(=O)c4ccc(OCCN5CCOCC5)cc4)c3)cc21 | < 1 |
| O=C(NCc1cccnc1)c1nc(-c2ccc(Cl)nc2)c2cnccn12 | 238 |
| Cc1cc(Nc2ccc(Br)c(C)c2)n2nc(C)nc2n1 | 874 |
| Cc1ccc(S(=O)(=O)Nc2cnccc2C(=O)Nc2nc(-c3cc(Br)cs3)cs2)cc1 | 9.1 |
| Cc1cc(C)nc(NC(=S)N2CCN(c3cccc(OC(F)F)c3)CC2)c1 | 852 |
| O=C(NCc1ccncc1)c1nc(-c2cccnc2)c2cnccn12 | 6.35 |
| COc1cccc(CNc2ccc(S(=O)(=O)Nc3ncccn3)cc2)c1O | 31.5 |
